{
  "source": "ChEMBL document CHEMBL4765493",
  "about": "“Berberine Directly Targets the NEK7 Protein to Block the NEK7-NLRP3 Interaction and Exert Anti-inflammatory Activity” (J Med Chem, 2021)",
  "key": {"[1]": {"assay": "Inhibition of LPS + nigericin-induced IL-1beta secretion in PMA-differentiated human THP-1 cells at 20 uM incubated for 24 hrs by ELISA", "assay_type": "functional"}, "HEK293": {"test_system": "HEK293", "assay": "Inhibition of NEK7-NLRP3 interaction (unknown origin) expressed in HEK293 cells at 10 uM incubated for 24 hrs by Co-IP assay", "assay_type": "cell-based", "conditions": "Homo sapiens"}, "[2]": {"biological_target": "T1, Serine/threonine-protein kinase Nek7 (Homo sapiens, UniProt Q8TDX7)", "T1 sequence (Q8TDX7 whole entry, looked up)": "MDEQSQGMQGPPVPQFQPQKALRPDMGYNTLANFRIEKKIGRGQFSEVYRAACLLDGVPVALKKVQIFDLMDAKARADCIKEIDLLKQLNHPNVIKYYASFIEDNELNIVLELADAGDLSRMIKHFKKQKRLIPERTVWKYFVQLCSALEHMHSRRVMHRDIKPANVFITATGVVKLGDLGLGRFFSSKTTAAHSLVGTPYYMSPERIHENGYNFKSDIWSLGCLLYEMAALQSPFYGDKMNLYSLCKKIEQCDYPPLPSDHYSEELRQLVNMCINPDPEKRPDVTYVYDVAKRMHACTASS", "assay": "Binding affinity to NEK7 in PMA-differentiated human THP-1 cells incubated for 2 hrs by SDS-PAGE and LC-MS/MS analysis", "assay_type": "cell-based"}, "[3]": {"biological_target": "DIMT1 dimethyladenosine transferase 1 (Homo sapiens) (UniProt Q9UNQ2)", "sequence (Q9UNQ2 whole entry, looked up)": "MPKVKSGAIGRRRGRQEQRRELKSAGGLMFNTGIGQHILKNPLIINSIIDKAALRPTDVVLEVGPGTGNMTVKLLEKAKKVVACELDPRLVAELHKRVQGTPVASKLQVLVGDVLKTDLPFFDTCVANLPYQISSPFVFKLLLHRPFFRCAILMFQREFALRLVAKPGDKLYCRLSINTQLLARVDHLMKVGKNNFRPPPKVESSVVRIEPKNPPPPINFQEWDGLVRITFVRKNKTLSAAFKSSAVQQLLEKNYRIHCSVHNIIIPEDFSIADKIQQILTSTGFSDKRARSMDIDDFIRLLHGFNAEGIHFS", "assay": "Binding affinity to DIM1 in PMA-differentiated human THP-1 cells incubated for 2 hrs by SDS-PAGE and LC-MS/MS analysis"}, "[4]": {"biological_target": "T1, Serine/threonine-protein kinase Nek7", "assay": "Binding affinity to NEK7 in PMA-differentiated human THP-1 cells incubated for 2 hrs by immunoblot analysis", "assay_type": "cell-based"}, "[5]": {"biological_target": "28S rRNA (cytosine-C(5))-methyltransferase (Homo sapiens) (UniProt Q96P11)", "sequence (Q96P11 whole entry)": "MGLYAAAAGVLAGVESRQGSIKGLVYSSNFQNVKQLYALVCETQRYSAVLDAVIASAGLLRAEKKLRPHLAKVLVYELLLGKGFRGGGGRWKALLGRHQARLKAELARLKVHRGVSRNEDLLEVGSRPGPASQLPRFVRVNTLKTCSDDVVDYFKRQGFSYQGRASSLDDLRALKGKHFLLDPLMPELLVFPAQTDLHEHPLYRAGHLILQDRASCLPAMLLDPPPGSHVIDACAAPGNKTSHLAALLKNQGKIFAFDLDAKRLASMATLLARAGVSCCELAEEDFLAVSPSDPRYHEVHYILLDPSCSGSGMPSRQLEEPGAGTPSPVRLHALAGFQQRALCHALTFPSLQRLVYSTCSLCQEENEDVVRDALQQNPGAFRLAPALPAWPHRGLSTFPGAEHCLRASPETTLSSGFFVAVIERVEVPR", "assay": "Binding affinity to NSUN5 in PMA-differentiated human THP-1 cells incubated for 2 hrs by SDS-PAGE and LC-MS/MS analysis", "assay_type": "cell-based"}, "[6]": {"biological_target": "T1, Serine/threonine-protein kinase Nek7", "assay": "Binding affinity to human recombinant NEK7 incubated for 2 hrs by pull down assay relative to control", "conditions": "THP-1"}, "[7]": {"biological_target": "T2, Serine/threonine-protein phosphatase PGAM5, mitochondrial (Homo sapiens) (UniProt Q96HS1)", "T2 sequence (whole entry)": "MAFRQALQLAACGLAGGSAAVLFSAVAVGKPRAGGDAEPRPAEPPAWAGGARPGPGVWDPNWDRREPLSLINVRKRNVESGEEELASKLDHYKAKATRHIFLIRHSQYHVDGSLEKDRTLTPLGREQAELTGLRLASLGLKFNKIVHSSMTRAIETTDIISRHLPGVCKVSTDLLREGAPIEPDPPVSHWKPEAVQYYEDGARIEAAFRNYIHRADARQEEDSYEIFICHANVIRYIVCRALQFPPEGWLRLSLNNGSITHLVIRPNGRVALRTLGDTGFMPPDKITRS", "assay": "Binding affinity to […] in PMA-differentiated human THP-1 cells incubated for 2 hrs by SDS-PAGE and LC-MS/MS analysis", "assay_type": "cell-based"}, "[8]": {"biological_target": "T3, Uridine-cytidine kinase 2 (Homo sapiens) (UniProt Q9BZX2)", "T3 sequence (whole entry)": "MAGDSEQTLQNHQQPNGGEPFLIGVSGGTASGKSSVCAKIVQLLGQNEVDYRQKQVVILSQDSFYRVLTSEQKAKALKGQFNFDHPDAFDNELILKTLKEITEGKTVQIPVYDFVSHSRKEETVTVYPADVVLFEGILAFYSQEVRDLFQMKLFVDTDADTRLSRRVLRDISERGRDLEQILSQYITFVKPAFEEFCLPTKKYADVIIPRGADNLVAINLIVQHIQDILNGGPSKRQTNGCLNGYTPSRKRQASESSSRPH", "assay": "Binding affinity to UCK2 in PMA-differentiated human THP-1 cells incubated for 2 hrs by SDS-PAGE and LC-MS/MS analysis", "assay_type": "cell-based"}, "[9]": {"biological_target": "T1, Serine/threonine-protein kinase Nek7", "assay": "Binding affinity to human recombinant NEK7 incubated for 2 hrs by pull down assay", "conditions": "THP-1"}, "[10]": {"biological_target": "Nicotinamide/nicotinic acid mononucleotide adenylyltransferase 1 (Homo sapiens) (UniProt Q9HAN9)", "sequence (Q9HAN9 whole entry)": "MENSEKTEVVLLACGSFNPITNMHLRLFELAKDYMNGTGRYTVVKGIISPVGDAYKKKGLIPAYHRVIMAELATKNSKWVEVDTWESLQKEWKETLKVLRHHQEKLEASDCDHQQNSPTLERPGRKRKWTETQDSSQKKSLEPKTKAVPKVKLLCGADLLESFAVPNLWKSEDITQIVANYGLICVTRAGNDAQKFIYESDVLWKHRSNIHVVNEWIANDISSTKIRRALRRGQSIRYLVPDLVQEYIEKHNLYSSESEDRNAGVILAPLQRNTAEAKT", "assay": "Binding affinity to NMNAT1 in PMA-differentiated human THP-1 cells incubated for 2 hrs by SDS-PAGE and LC-MS/MS analysis", "assay_type": "cell-based"}, "[11]": {"biological_target": "T1, Serine/threonine-protein kinase Nek7", "assay": "Binding affinity to human recombinant NEK7 incubated for 2 hrs in presence of BBR by pull down assay"}},
  "note": "The source made the active and inactive calls. The calls are words filed in the database; no cut-off is given here.",
  "data": [
    {"smiles": "COc1c(OCCCCCNC(=O)CCCC[C@@H]2SC[C@@H]3NC(=O)N[C@@H]32)ccc2cc3[n+](cc12)CCc1cc2c(cc1-3)OCO2", "values": [
      {"measurement": "inhibition at 20 µM", "setting": "[1]", "value": 73, "unit": "%"}
    ]},
    {"smiles": "COc1cc2c(cc1OC)-c1cc3ccc(OC)c(OC)c3c[n+]1CC2", "values": [
      {"measurement": "inhibition", "setting": "HEK293", "value": "inactive"}
    ]},
    {"smiles": "COc1ccc2cc3[n+](cc2c1OCCCCCNC(=O)CCCC[C@@H]1SC[C@@H]2NC(=O)N[C@@H]21)CCc1cc2c(cc1-3)OCO2", "values": [
      {"measurement": "inhibition at 20 µM", "setting": "[1]", "value": -2, "unit": "%"}
    ]},
    {"smiles": "COc1cc2c(cc1OC)-c1cc3ccc(OC)c(OCCOCCNC(=O)CCCC[C@@H]4SC[C@@H]5NC(=O)N[C@@H]54)c3c[n+]1CC2", "values": [
      {"measurement": "inhibition at 20 µM", "setting": "[1]", "value": 65, "unit": "%"}
    ]},
    {"smiles": "COc1c(OCCOCCNC(=O)CCCC[C@@H]2SC[C@@H]3NC(=O)N[C@@H]32)ccc2cc3[n+](cc12)CCc1cc2c(cc1-3)OCO2", "values": [
      {"measurement": "inhibition at 20 µM", "setting": "[1]", "value": 26, "unit": "%"}
    ]},
    {"smiles": "COc1cc2c(cc1OCCCNC(=O)CCCC[C@@H]1SC[C@@H]3NC(=O)N[C@@H]31)CC[n+]1cc3c(OC)c(OC)ccc3cc1-2", "values": [
      {"measurement": "inhibition at 20 µM", "setting": "[1]", "value": -49, "unit": "%"}
    ]},
    {"smiles": "COc1c(OCCOCCOCCNC(=O)CCCC[C@@H]2SC[C@@H]3NC(=O)N[C@@H]32)ccc2cc3[n+](cc12)CCc1cc2c(cc1-3)OCO2", "values": [
      {"measurement": "Activity", "setting": "[2]", "value": "Active"},
      {"measurement": "Activity", "setting": "[3]", "value": "Active"},
      {"measurement": "Activity", "setting": "[4]", "value": "Active"},
      {"measurement": "Activity", "setting": "[5]", "value": "Active"},
      {"measurement": "Activity", "setting": "[6]", "value": "Dose-dependent effect"},
      {"measurement": "inhibition at 20 µM", "setting": "[1]", "value": 83, "unit": "%"},
      {"measurement": "Activity", "setting": "[7]", "value": "Active"},
      {"measurement": "Activity", "setting": "[8]", "value": "Active"},
      {"measurement": "Activity", "setting": "[9]", "value": "Active"},
      {"measurement": "Activity", "setting": "[10]", "value": "Active"},
      {"measurement": "Activity", "setting": "[11]", "value": "inactive"}
    ]},
    {"smiles": "COc1cc2c(cc1OC)-c1cc3ccc(OC)c(OCCOCCOCCNC(=O)CCCC[C@@H]4SC[C@@H]5NC(=O)N[C@@H]54)c3c[n+]1CC2", "values": [
      {"measurement": "Activity", "setting": "[2]", "value": "inactive"},
      {"measurement": "Activity", "setting": "[3]", "value": "inactive"},
      {"measurement": "Activity", "setting": "[5]", "value": "inactive"},
      {"measurement": "inhibition at 20 µM", "setting": "[1]", "value": -78, "unit": "%"},
      {"measurement": "Activity", "setting": "[7]", "value": "inactive"},
      {"measurement": "Activity", "setting": "[8]", "value": "inactive"},
      {"measurement": "Activity", "setting": "[10]", "value": "inactive"}
    ]},
    {"smiles": "COc1ccc2cc3[n+](cc2c1OCCOCCNC(=O)CCCC[C@@H]1SC[C@@H]2NC(=O)N[C@@H]21)CCc1cc2c(cc1-3)OCO2", "values": [
      {"measurement": "inhibition at 20 µM", "setting": "[1]", "value": 10, "unit": "%"}
    ]}
  ]
}
